Laboratory results published in patent US12030876B2, “Aryl hydrocarbon receptor (AHR) agonists and uses thereof” (Ikena Oncology, Inc., priority 2019, dated 2024).

What was measured:
AHR [1] = molecular target: T1, AHR (Homo sapiens, UniProt P35869); assay: DRE-Luciferase Reporter Assay, HepG2 (agonist); assay type: cell-based; details: HepG2, Table 2; read-out: DRE-Luc HepG2 - Agonist: Average EC50
T1 construct: endogenous in cells; host or cells: HepG2 (human), transfected with a DRE-luciferase reporter only
T1 sequence (P35869 11-848): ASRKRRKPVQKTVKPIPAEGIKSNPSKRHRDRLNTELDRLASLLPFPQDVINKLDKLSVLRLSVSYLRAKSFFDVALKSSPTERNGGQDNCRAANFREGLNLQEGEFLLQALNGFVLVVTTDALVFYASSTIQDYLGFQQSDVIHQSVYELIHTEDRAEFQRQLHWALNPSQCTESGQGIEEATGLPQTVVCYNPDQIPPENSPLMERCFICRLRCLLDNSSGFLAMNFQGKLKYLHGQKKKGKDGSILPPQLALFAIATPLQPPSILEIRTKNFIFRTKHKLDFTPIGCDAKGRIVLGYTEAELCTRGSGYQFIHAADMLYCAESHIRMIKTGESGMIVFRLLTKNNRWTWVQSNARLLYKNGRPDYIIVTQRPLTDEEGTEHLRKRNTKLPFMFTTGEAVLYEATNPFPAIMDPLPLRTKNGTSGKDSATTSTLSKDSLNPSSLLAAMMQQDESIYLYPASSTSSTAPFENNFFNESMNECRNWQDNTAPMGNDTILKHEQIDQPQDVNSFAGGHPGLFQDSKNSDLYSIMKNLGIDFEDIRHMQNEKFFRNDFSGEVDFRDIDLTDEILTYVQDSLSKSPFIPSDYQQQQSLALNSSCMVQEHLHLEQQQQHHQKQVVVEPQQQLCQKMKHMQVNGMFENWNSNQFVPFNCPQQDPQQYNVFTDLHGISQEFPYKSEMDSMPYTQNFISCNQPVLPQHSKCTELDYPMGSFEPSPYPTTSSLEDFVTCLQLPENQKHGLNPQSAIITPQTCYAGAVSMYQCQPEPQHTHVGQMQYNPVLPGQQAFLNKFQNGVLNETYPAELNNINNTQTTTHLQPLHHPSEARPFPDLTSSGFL
Procedure: DRE-Luciferase Reporter Assay
AHR binds to Dioxin Responsive Elements (DRE) upstream of genes that it activates. One measure of AHR activity is activation of a reporter gene, such as luciferase, downstream of one or multiple DRE elements. Luciferase activity reflects activation and inhibition of AHR in the cells expressing this reporter.
Murine Hepa1-6 or Hepa-1c1c7 or other murine cell line with a DRE-luciferase reporter either stably or transiently transfected are plated in media in plates (96-well, 384-well or other plates) and incubated overnight at 37 C in a CO2 incubator. Likewise, human HepG2 or other human cell line with a DRE-luciferase reporter either stably or transiently transfected are plated in media in plates (96-well, 384-well or other plates) and incubated overnight at 37 C in a CO2 incubator.
(§1) The next day, an AHR agonist compound is added. Cells are incubated for 6, 16 or 24 hours or another time point and then lysed for determination of luciferase activity as a read-out of the AHR activation. Luciferase can be measured with a commercial kit such as the Promega Luciferase kit or any kit or reagents that provide the luciferin substrate for measuring luciferase activity. The level of luciferase with only activating ligand (e.g. such as TCDD, kynurenine, ITE (2-(1H-indole-3-ylcarbonyl)-4-thiazolecarboxylic methyl ester), VAF347, BNF (beta-naphthoflavone), ICZ (6-formylindolo(3,2-b) carbazole or other AHR ligands) added is the maximum signal while the luciferase with no ligand is the minimum signal. EC50s can be determined as the concentration which activates half of the maximum luciferase activity.

AHR [2] = molecular target: T2, AHR (Mus musculus, UniProt P30561); assay: P450 CYP1A1 Luciferase Assay, Hepa1.6 (agonist); assay type: cell-based, murine; details: Hepa1.6, Table 2
T2 sequence (P30561 1-848 F348L/P471L): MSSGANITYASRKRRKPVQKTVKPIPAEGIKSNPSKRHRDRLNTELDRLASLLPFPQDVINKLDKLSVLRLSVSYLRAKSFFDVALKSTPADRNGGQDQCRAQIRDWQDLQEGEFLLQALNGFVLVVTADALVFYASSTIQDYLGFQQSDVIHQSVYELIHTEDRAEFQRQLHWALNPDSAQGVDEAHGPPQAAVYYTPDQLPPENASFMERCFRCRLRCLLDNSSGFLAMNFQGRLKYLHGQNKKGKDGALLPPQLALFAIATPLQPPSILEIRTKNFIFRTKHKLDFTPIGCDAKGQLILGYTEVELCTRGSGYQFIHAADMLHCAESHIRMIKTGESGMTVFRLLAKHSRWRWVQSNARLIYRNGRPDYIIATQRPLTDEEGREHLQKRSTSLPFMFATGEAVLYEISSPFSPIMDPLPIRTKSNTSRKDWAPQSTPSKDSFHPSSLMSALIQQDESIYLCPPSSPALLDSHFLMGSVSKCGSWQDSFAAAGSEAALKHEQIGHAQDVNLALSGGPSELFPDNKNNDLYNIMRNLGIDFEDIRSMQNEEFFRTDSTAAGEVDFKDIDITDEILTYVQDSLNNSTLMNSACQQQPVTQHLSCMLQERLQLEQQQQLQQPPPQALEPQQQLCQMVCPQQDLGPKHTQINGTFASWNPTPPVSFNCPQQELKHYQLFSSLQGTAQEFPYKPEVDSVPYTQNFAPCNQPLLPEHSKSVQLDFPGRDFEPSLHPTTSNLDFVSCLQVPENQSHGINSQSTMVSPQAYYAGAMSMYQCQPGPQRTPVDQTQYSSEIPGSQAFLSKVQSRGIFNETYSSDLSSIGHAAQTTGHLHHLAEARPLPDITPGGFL
Procedure: P450 CYP1A1 Luciferase Assay
AHR binds to Dioxin Responsive Elements (DRE) upstream of genes that it activates. One measure of AHR activity is P450 CYP1A1 protein levels determined by measuring CYP1A1 enzyme activity using a luminogenic CYP1A1 luciferin-based substrate. Luciferase activity will reflect CYP1A1 activity resulting from activation of AHR in the cells.
Murine Hepa1-6 or Hepa-1c1c7 or other murine cell line, human HepG2 or other human cell line are plated in media (96-well, 384-well or other plates) and incubated overnight at 37 C in a CO2 incubator.
as §1, with “lysed and incubated with a CYP1A1 luciferase-based substrate (e.g. Luciferin-CEE)” for “lysed”, “3, 6, or 12 hours of another time point. Determination” for “determination”, “CYP1A1 enzyme activity” for “the AHR activation. Luciferase”, “P450 Glo CYP1A1 detection reagent” for “Luciferase kit”, “provide” for “provide the luciferin substrate”

| Structure (SMILES) | EC50 (AHR [1]) [µM] | EC50 (AHR [2]) [µM] |
| --- | --- | --- |
| O=[N+]([O-])c1cccc(-c2csc(Nc3cccc(C(F)(F)F)c3)n2)c1 [Compound P-1] | < 0.01 | 0.01 to 0.1 |
| O=[N+]([O-])c1ccc(-c2csc(Nc3cccc(C(F)(F)F)c3)n2)cc1 [Compound P-3] | < 0.01 | > 1 |
| FC(F)(F)c1cccc(Nc2nc(-c3cccc(Br)c3)cs2)c1 [Compound P-4] | < 0.01 | 0.1 to 1 |
| Clc1cccc(Nc2nc(-c3cccc(Cl)c3)cs2)c1 [Compound P-5] | < 0.01 | > 1 |
| FC(F)(F)c1cccc(Nc2nc(-c3ccncc3)cs2)c1 [Compound P-6] | < 0.01 | > 1 |
| Clc1cccc(-c2csc(Nc3ccccc3)n2)c1 [Compound P-7] | < 0.01 | > 1 |
| FC(F)(F)c1cccc(Nc2nc(-c3cccnc3)cs2)c1 [Compound P-8] | < 0.01 | 0.1 to 1 |
| FC(F)(F)c1cccc(Nc2nc(-c3ccccn3)cs2)c1 [Compound P-9] | < 0.01 | > 1 |
| FC(F)(F)c1cccc(Nc2nc(-c3ccc(Cl)cc3)cs2)c1 [Compound P-10] | 0.01 to 0.1 | > 1 |
| COc1cccc(-c2csc(Nc3cccc(C(F)(F)F)c3)n2)c1 [Compound P-11] | 0.01 to 0.1 | > 1 |
| Clc1cccc(-c2csc(Nc3cccnc3)n2)c1 [Compound P-12] | 0.01 to 0.1 | > 1 |
| Clc1cccc(-c2csc(Nc3ccccn3)n2)c1 [Compound P-13] | 0.1 to 1 | > 1 |
| C[N+](C)(C)CCNC(=O)N(c1cccc(C(F)(F)F)c1)c1nc(-c2cccc([N+](=O)[O-])c2)cs1 [I-1] | < 0.01 | 0.01 to 0.1 |
| C[N+](C)(CCNC(=O)N(c1cccc(C(F)(F)F)c1)c1nc(-c2cccc(Cl)c2)cs1)CCNC(=O)N(c1cccc(C(F)(F)F)c1)c1nc(-c2cccc(Cl)c2)cs1 [I-2] | < 0.01 | 0.1 to 1 |
| C[N+](C)(CCO)CCNC(=O)N(c1cccc(C(F)(F)F)c1)c1nc(-c2cccc(Cl)c2)cs1 [I-3] | < 0.01 | 0.1 to 1 |
| C[N+](C)(CCO)CCNC(=O)N(c1cccc(C(F)(F)F)c1)c1nc(-c2cccc([N+](=O)[O-])c2)cs1 [I-4] | < 0.01 | 0.01 to 0.1 |
| FC(F)(F)c1cncc(Nc2nc(-c3cccc(Cl)c3)cs2)c1 [I-5] | < 0.01 | > 1 |
| FC(F)(F)c1cccc(Nc2nc(-c3cccc(Cl)c3)cs2)n1 [I-6] | < 0.01 | > 1 |
| O=[N+]([O-])c1cncc(-c2csc(Nc3cccc(C(F)(F)F)c3)n2)c1 [I-7] | < 0.01 | 0.1 to 1 |
| C[N+](C)(C)CCNC(=O)N(c1cccc(C(F)(F)F)c1)c1nc(-c2cccc(Cl)c2)cs1 [I-8] | < 0.01 | > 1 |

| Structure (SMILES) | EC50 (AHR [1]) [µM] | EC50 (AHR [2]) [µM] |
| --- | --- | --- |
| [O-][n+]1cccc(-c2csc(Nc3cccc(C(F)(F)F)c3)n2)c1 [I-9] | < 0.01 | 0.01 to 0.1 |
| Cc1ccc(-c2csc(Nc3cccc(C(F)(F)F)c3)n2)cc1[N+](=O)[O-] [I-11] | < 0.01 | 0.1 to 1 |
| FC(F)(F)c1cccc(Nc2nc(-c3ccc(Cl)c(Cl)c3)cs2)c1 [I-12] | < 0.01 | > 1 |
| FC(F)(F)Oc1cccc(Nc2nc(-c3cccc(Cl)c3)cs2)c1 [I-13] | < 0.01 | > 1 |
| N#Cc1cccc(-c2csc(Nc3cccc(C(F)(F)F)c3)n2)c1 [I-14] | < 0.01 | 0.01 to 0.1 |
| Cc1c(-c2csc(Nc3cccc(C(F)(F)F)c3)n2)cccc1[N+](=O)[O-] [I-15] | < 0.01 | > 1 |
| C[N+](C)(CO)CCNC(=O)N(c1cccc(C(F)(F)F)c1)c1nc(-c2cccc(C#N)c2)cs1 [I-16] | < 0.01 | 0.1 to 1 |
| NC(=O)c1cncc(-c2csc(Nc3cccc(C(F)(F)F)c3)n2)c1 [I-17] | < 0.01 | 0.1 to 1 |
| Oc1cccc(-c2csc(Nc3cccc(C(F)(F)F)c3)n2)c1 [I-18] | < 0.01 | > 1 |
| FC(F)(F)c1cccc(Nc2nc(-c3ccccc3Cl)cs2)c1 [I-19] | < 0.01 | > 1 |
| C[N+]1(CCNC(=O)N(c2cccc(C(F)(F)F)c2)c2nc(-c3cccc(Cl)c3)cs2)CCC(O)CC1 (stereo not drawn) [I-20] | < 0.01 | > 1 |
| FC(F)(F)c1ccc(Nc2nc(-c3cccc(Cl)c3)cs2)cc1 [I-21] | < 0.01 | > 1 |
| NC(=O)c1cccc(-c2csc(Nc3cccc(C(F)(F)F)c3)n2)c1 [I-22] | < 0.01 | 0.1 to 1 |
| FC(F)(F)c1cccc(Nc2nc(-c3ccc4cc[nH]c4c3)cs2)c1 [I-23] | < 0.01 | > 1 |
| C[N+](C)(C)CCCNC(=O)N(c1cccc(C(F)(F)F)c1)c1nc(-c2cccc(Cl)c2)cs1 [I-24] | 0.01 to 0.1 | > 1 |
| N#Cc1cccc(Nc2nc(-c3cccc(Cl)c3)cs2)c1 [I-25] | 0.01 to 0.1 | > 1 |
| C[N+](C)(CCO)CCCNC(=O)N(c1cccc(C(F)(F)F)c1)c1nc(-c2cccc(Cl)c2)cs1 [I-26] | 0.01 to 0.1 | > 1 |
| Cc1sc(Nc2cccc(C(F)(F)F)c2)nc1-c1cccc(Cl)c1 [I-27] | 0.01 to 0.1 | > 1 |
| C[N+]1(CCNC(=O)N(c2cccc(C(F)(F)F)c2)c2nc(-c3cccc(Cl)c3)cs2)CCCCC1 [I-28] | 0.01 to 0.1 | > 1 |
